Data on 7 compounds can be found in paper PMC6238005, “Sigma-2 Receptor/TMEM97 and PGRMC-1 Increase the Rate of Internalization of LDL by LDL Receptor through the Formation of a Ternary Complex” (Scientific Reports, 2018).

Where two headings read alike, the source gives them in different places.

Test [1] concerns the target T1, σ2R (Homo sapiens, UniProt Q5BJF2).
T1 construct: endogenous in cells; host or cells: HeLa control clone (non-specific CRISPR/Cas9 plasmid plus lentiCas9-Blast), membrane preparation
The test can be described thus: Saturation binding on control (Scramble/Cas9) HeLa cell membranes. As for the experimental part:
(§1) For the cell membrane preparation for receptor binding, the cell pellets were taken out from the freezer, rinsed with 10 mL ice-cold PBS solution, and homogenized by using Wheaton overhead stirrer (120 Vac Overhead Stirrer, Millville, NJ, USA) at the speed of 2 for 30 sec. Then the cell solution was transferred to a 50 mL conical tube and centrifuged for 20 min at 31,000 × g, 4 °C. After centrifugation, the supernatant was discarded and the pellets were resuspended in 1 mL ice-cold PBS solution and stored at −80 °C freezer.
(§2) After incubation, the bound ligands were collected with a M-24 Brandel filtration system (Brandel, Gaithersburg, MD, USA) on the glass fiber papers (Whatman grade 934-AH, GE Healthcare Bio-Sciences, Pittsburgh, PA), and counted with a MicroBeta[2] Microplate counter 2450 or Wizard2 Automatic Gamma Counter 2470. All the Kd and Bmax values were calculated from a nonlinear regression method with Prism, and the protein concentrations were determined by the method of Lowry et al.[4] with BSA as a standard.

For test [2], the target named is T1, σ2R. The test can be described thus: Saturation binding on PGRMC1 KO HeLa cell membranes. To be noted: PGRMC1 KO/Cas9 HeLa cell membranes. As for the experimental part: as §1, §2
Test [3] has as its target T1, σ2R. To be noted: cited from earlier work; for Kd: no reference given.
Test [4] relates to residual DTG binding site. The test can be described thus: Saturation binding on TMEM97 KO HeLa cell membranes. To be noted: for binding to TMEM97 KO HeLa cells: TMEM97 KO versus control, all three guide RNA sequences; for Kd: TMEM97 KO/Cas9 HeLa cell membranes, saturation binding, N.B. = no binding. As for the experimental part: as §1, §2
For test [5], the system named is residual DTG binding site. The test can be described thus: Saturation binding on TMEM97/PGRMC1 double KO HeLa cell membranes. To be noted: Double KO/Cas9 HeLa cell membranes, N.B. = no binding. Here is the method: as §1, §2
The test system of test [6] is HeLa cells. The test can be described thus: Radiolabeled LDL uptake assay. The class given is cell-based. To be noted: control HeLa cells, ligands 1 nM - 500 nM. Here is the method:
Radiolabeled LDL was prepared by incubating human LDL (50 μg/mL) (LP2, Millipore) with [^3H]cholesterol (final concentration 3 μCi/mL) in serum-free MEM for 24 hours at 37 °C, filtered using a 0.2 μm filter, and used immediately. Care was taken not to vortex LDL to avoid aggregation of particles.
Cells were plated on 6-well plates (1 × 10^5 cells per well) or for 96-well plates (1 × 10^4 cells per well) in MEM with 10% FBS, 100 I.U./ml penicillin, 100 µg/ml streptomycin, 2mM L-glutamine, and 1X MEM non-essential amino acids. After 24 hours, media was removed and cells were incubated with MEM containing 10% lipoprotein-depleted serum (LPDS) (AAJ65182AMG, Fisher Scientific) for an additional 24 hours. […] Cells were washed 3 times in PBS, incubated with scintillation fluid overnight, and counts per minute (cpm) were determined using a scintillation counter MicroBeta[2] Microplate counter 2450.

Where [7] appears, read: control (Cas9) HeLa cell membranes, Supplementary Figure 2, duplicates, n=3.
The mark [8] stands for this setting: σ2R, ligands previously described, read-out: Kd.

T1 sequence (Q5BJF2 whole entry): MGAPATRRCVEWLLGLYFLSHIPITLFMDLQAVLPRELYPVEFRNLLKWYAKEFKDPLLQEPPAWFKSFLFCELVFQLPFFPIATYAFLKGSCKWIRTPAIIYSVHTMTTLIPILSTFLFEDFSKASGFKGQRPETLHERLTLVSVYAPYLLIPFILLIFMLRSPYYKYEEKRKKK

What is called Kd is a measure of binding affinity in units of concentration. Turning to `COc1cc2c(cc1OC)CN(CCCCNC(=O)c1cc(I)cc(OC)c1OC)CC2` [[^125I]RHM-4, [^125I]N-(4-(6,7-dimethoxy-3,4-dihydroisoquinolin-2(1 H)-yl)butyl)-2,3-dimethoxy-5-iodo-benzamide], the Kd in test [1] (Scramble/Cas9 control HeLa cell membranes, saturation binding, 1 μM (+)-pentazocine to mask σ1R for [3H]DTG) turned out to be 0.88 ± 0.04 nM; in test [1] (setting [7]) it was 1.1 ± 0.2 nM; in test [2] (saturation binding), 2.66 ± 0.12 nM.

For the compound `COc1cc2c(cc1OC)CN(CCCCNC(=O)c1cc(C)ccc1OC)CC2` [RHM-1], the dissociation constant Kd in test [3] (setting [8]) is roughly 0.66 nM.

The Ki is the equilibrium dissociation constant of an inhibitor or competing ligand from its target. With `Cc1ccc2c(c1)[C@H]1CN(C)CC[C@H]1N2C(=O)CSc1nnnn1-c1ccc(Cl)cc1` [AG-205], in test [3] (against σ2R, read-out: Kd against σ2R), the Kd was roughly 1000 nM. Also, the Ki in test [3] (displacing DTG, no unit and reference not given) was roughly 1260 nM.

On to `Cc1ccccc1N=C(N)Nc1ccccc1C` [[^3H]DTG], for which the “binding to TMEM97 KO HeLa cells” value in test [4] is “large, but incomplete, reduction”. Besides, the results for the Kd in test [4] (read-out: Kd) and in test [5] (read-out: Kd) were 302 ± 80.2 nM and 403 ± 110 nM, respectively.

As for `COc1cc2c(cc1OC)CN(CCCCNC(=O)c1cc([125I])cc(OC)c1OC)CC2` [[^125I]RHM-4, [^125I]N-(4-(6,7-dimethoxy-3,4-dihydroisoquinolin-2(1 H)-yl)butyl)-2,3-dimethoxy-5-iodo-benzamide], the results for the Bmax in test [1] (Scramble/Cas9 control HeLa cell membranes), in test [1] (setting [7]) and in test [2] were 2545 ± 37 fmol/mg, 2234.0 fmol/mg and 2475 ± 51 fmol/mg, respectively. In addition, the “binding to TMEM97 KO HeLa cells” value in test [4] is given as “complete reduction in binding”. Besides, the Kd entry in test [4] and in test [5] was “N.B” throughout.

On to `COc1ccc(C)cc1NC(=O)OC1CC2CCCC(C1)N2CCCCCCCCCCN` (stereo not drawn) [SW43], for which the Kd in test [3] (setting [8]) is roughly 12 nM.

Regarding `COc1cc2c(cc1OC)CN(CCCCNC(=O)c1cc(I)cc(OC)c1OC)CC2` [RHM-4, N-(4-(6,7-dimethoxy-3,4-dihydroisoquinolin-2(1H)-yl)butyl)-2,3-dimethoxy-5-iodo-benzamide], the “effect on uptake of LDL labeled with [3H]cholesterol” value in test [6] was “blocking the uptake of LDL”. Also, the Kd in test [3] (setting [8]) is roughly 0.2 nM.
